# Reference: patent publication US20050228007A1, “Isoquinoline derivatives and methods of use thereof” (priority 2004, published 2005)
# What was measured:
# PARS [1] = target: T1, PARS (Mus musculus, UniProt P11103); assay: PARS activation in peroxynitrite-treated cultured macrophages (whole-cell 3H-NAD+ assay); type: cell-based; conditions: cultured murine macrophages; for inhibition at 0.1 µM / % PARS inhibition at 100 nM: 100 nM; for inhibition at 0.3 µM / % PARS inhibition at 300 nM: 300 nM
# T1 construct: endogenous in cells; host or cells: RAW mouse macrophages
# T1 sequence (P11103 whole entry): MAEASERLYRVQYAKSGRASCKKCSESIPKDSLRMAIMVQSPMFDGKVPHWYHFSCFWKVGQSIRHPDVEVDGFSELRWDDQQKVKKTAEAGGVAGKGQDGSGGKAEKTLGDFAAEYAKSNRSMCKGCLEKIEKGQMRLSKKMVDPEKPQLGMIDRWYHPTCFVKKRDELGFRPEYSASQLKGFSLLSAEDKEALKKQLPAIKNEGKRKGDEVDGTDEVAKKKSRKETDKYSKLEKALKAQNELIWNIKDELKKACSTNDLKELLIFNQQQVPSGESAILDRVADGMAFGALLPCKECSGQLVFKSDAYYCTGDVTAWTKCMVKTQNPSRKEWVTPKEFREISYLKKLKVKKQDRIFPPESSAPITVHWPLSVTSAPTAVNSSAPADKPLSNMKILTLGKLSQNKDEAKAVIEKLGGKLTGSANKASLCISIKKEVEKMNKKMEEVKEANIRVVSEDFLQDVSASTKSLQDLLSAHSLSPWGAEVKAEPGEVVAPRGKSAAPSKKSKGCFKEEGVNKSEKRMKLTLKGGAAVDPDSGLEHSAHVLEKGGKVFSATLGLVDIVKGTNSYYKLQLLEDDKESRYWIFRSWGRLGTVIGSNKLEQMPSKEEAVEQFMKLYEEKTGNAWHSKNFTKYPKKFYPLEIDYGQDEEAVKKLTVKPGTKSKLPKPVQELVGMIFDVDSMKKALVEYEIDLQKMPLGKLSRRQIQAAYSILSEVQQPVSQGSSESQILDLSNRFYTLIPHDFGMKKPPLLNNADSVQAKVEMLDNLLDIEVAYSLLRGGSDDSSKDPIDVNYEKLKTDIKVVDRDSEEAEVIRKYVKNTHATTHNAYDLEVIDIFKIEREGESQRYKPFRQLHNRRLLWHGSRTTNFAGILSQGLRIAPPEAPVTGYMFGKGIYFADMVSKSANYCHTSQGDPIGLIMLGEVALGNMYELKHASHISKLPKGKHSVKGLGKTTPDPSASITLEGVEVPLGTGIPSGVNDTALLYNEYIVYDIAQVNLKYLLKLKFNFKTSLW
# Experimental: Raw mouse macrophages were cultured in DMEM medium with high glucose and supplemented with 10% fetal bovine serum. Cells were used at 80% confluence in 12-well plates. Cells were pretreated with various concentrations (100 nM -1 µM) of an Isoquinoline Derivative for 10 min. Peroxynitrite, a prototypical oxidant which induces DNA single strand breakage, was used to induce PARS activation. Peroxynitrite was diluted in phosphate buffered saline (PBS) (pH 11.0) and added to the cells in a bolus of 50 μl. Cells were then incubated for 20 min. […] After the 20 min incubation, the cells were spun, the medium was aspirated and the cells were resuspended in 0.5 ml assay buffer (56 mM HEPES pH 7.5, 28 mM KCl, 28 mM NaCl, 2 mM MgCl2, 0.01% w/v digitonin and 0.125 μM NAD^+ and 0.5 μCi/ml ^3H-NAD^+). Following an incubation in assay buffer, (10 min at 37° C.), PARS activity was measured as follows: 200 μl ice cold 50% w/v TCA was added and the samples were incubated for 4 hours at 4° C. Samples were then spun (10 min @ 10,000 g) and pellets washed twice with ice cold 5% w/v TCA and solubilized overnight in 250 μl 2% w/v SDS/0.1 N NaOH at 37° C. The contents of the tubes were added to 6.5 ml ScintiSafe Plus scintillation liquid (Fisher Scientific) and radioactivity was determined using a liquid scintillation counter (Wallac, Gaithersburg, Md.).
# PARS [2] = target: T1, PARS; assay: Cell protection assay, peroxynitrite-treated raw mouse macrophages; type: cell-based; conditions: peroxynitrite 750 μM
structure (smiles),measurement,setting,value
"O=c1[nH]c2c(c3ccccc13)C(O)c1ccccc1-2 (racemic) [Compound 3a, (±) 11-hydroxy-5,6-dihydro-5-oxo-11H-indeno[1,2-c]isoquinoline]",inhibition at 0.1 µM,PARS [1],8%
same,inhibition at 1 µM,PARS [1],67%
"CC1(O)c2ccccc2-c2[nH]c(=O)c3ccccc3c21 (racemic) [Compound 3b, (±) 11-hydroxy-11-methyl-5,6-dihydro-5-oxo-11H-indeno[1,2-c]isoquinoline]",inhibition at 0.3 µM,PARS [1],0%
same,inhibition at 1 µM,PARS [1],25%
"COc1cccc(C2(O)c3ccccc3-c3[nH]c(=O)c4ccccc4c32)c1 (racemic) [Compound 3c, (±) 11-hydroxy-11-(m-methoxyphenyl)-5,6-dihydro-5-oxo-11H-indeno[1,2-c]isoquinoline]",inhibition at 0.3 µM,PARS [1],9%
same,inhibition at 1 µM,PARS [1],21%
"O=c1[nH]c2c(c3ccccc13)C(Br)c1ccccc1-2 (racemic) [Compound 4b, (±) 11-bromo-5,6-dihydro-5-oxo-11H-indeno[1,2-c]isoquinoline]",inhibition at 0.1 µM,PARS [1],51%
same,inhibition at 1 µM,PARS [1],88%
"CN(C)C1c2ccccc2-c2[nH]c(=O)c3ccccc3c21 (racemic) [Compound 5a, (±) 11-N,N-dimethylamino-5,6-dihydro-5-oxo-11H-indeno[1,2-c]isoquinoline]",% PARS inhibition at 100 nM,PARS [1],10%
same,% PARS inhibition at 1 μM,PARS [1],55%
"CCN(CC)C1c2ccccc2-c2[nH]c(=O)c3ccccc3c21 (racemic) [Compound 5b, (±) 11diethylamino-5,6-dihydro-5-oxo-11H-indeno[1,2-c]isoquinoline]",inhibition at 0.1 µM,PARS [1],0%
same,inhibition at 1 µM,PARS [1],33%
"CN1CCN(C2c3ccccc3-c3[nH]c(=O)c4ccccc4c32)CC1 (racemic) [Compound 5c, (±) 11-(N-methylpiperazin)-5,6-dihydro-5-oxo-11H-indeno[1,2-c]isoquinoline]",% PARS inhibition at 100 nM,PARS [1],0%
same,% PARS inhibition at 1 μM,PARS [1],24%
"O=c1[nH]c2c(c3ccccc13)C(N1CCOCC1)c1ccccc1-2 (racemic) [Compound 5e, (±) 11-morpholino-5,6-dihydro-5-oxo-11H-indeno[1,2-c]isoquinoline]",inhibition at 0.1 µM,PARS [1],0%
same,inhibition at 1 µM,PARS [1],21%
"O=C1c2ccccc2-c2[nH]c(=O)c3ccccc3c21 [Compound 2, 5,6-dihydro-5,11-diketo-11H-indeno[1,2-c]isoquinoline]",inhibition at 0.1 µM,PARS [1],16%
same,inhibition at 1 µM,PARS [1],60%
"O=c1[nH]c2c(c3ccccc13)C(N1CCCCC1)c1ccccc1-2 (stereo not shown) [Compound 5d, 11-(piperidin)-5,6-dihydro-5-oxo-11H-indeno[1,2-c]isoquinoline]",% PARS inhibition at 100 nM,PARS [1],0%
same,% PARS inhibition at 1 μM,PARS [1],48%
"O=c1[nH]c2c(c3ccccc13)Cc1ccccc1-2 [Compound 6, 5,6-dihydro-5-oxo-11H-indeno[1,2-c]isoquinoline]",inhibition at 0.1 µM,PARS [1],30%
same,inhibition at 1 µM,PARS [1],65%
"O=c1[nH]c2c(c3ccccc13)Cc1cc(S(=O)(=O)Cl)ccc1-2 [Compound 7, 9-chlorosulfonyl-5,6-dihydro-5-oxo-11H-indeno[1,2-c]isoquinoline]",inhibition at 0.1 µM,PARS [1],0%
same,inhibition at 1 µM,PARS [1],50%
"CN1CCN(S(=O)(=O)c2ccc3c(c2)Cc2c-3[nH]c(=O)c3ccccc23)CC1 [Compound 8a, 9-[N-(4-methylpiperazine-1-yl)sulphonyl]-5,6-dihydro-5-oxo-11H-indeno-[1,2-c]isoquinoline]",% PARS inhibition at 300 nM,PARS [1],47%
"O=c1[nH]c2c(c3ccccc13)Cc1cc(S(=O)(=O)N3CCN(CCO)CC3)ccc1-2 [Compound 8c, 9-[N-4-(2-hydroxyethylpiperazino-1-yl)-sulphonyl]-5,6-dihydro-5-oxo-1H-indeno-[1,2-c]isoquinoline]",% PARS inhibition at 300 nM,PARS [1],27%
"O=c1[nH]c2c(c3ccccc13)Cc1cc(S(=O)(=O)n3ccnc3)ccc1-2 [Compound 8d, 9-[N-(imidazolo-1-yl)sulphonyl]-5,6-dihydro-5-oxo-11H-isoquinoline]",% PARS inhibition at 100 nM,PARS [1],77%
same,% PARS inhibition at 300 nM,PARS [1],82%
"O=c1[nH]c2c(c3ccccc13)Cc1cc(S(=O)(=O)N3CCCC3CO)ccc1-2 (stereo not shown) [Compound 8e, 9-[N-(2-hydroxyprolinyl)sulphonyl]-5,6-dihydro-5-oxo-11H-indeno[1,2-c]isoquinoline]",% PARS inhibition at 300 nM,PARS [1],68%
"CN(C)CCNS(=O)(=O)c1ccc2c(c1)Cc1c-2[nH]c(=O)c2ccccc12 [Compound 8g, 9-[N-(2-[N,N-dimethylamino]ethyl)aminosulphonyl]-5,6-dihydro-5-oxo-11H-indeno[1,2-c]isoquinoline]",inhibition at 0.1 µM,PARS [1],34%
same,inhibition at 0.3 µM,PARS [1],55%
"O=c1[nH]c2c(c3ccccc13)Cc1cc(S(=O)(=O)NCCN3CCCCC3)ccc1-2 [Compound 8h, 9-[N-(2-[piperidino-1-yl]ethyl)-aminosulphonyl]-5,6-dihydro-5-oxo-11H-indeno[1,2-c]isoquinoline]",% PARS inhibition at 100 nM,PARS [1],56%
same,% PARS inhibition at 300 nM,PARS [1],76%
"O=c1[nH]c2c(c3ccccc13)Cc1cc(S(=O)(=O)NCCCN3CCCC3)ccc1-2 [Compound 8m, 9-[N-(3-[tetrahydropyrrolodino-1-yl]propyl)aminosulphonyl]-5,6-dihydro-5-oxo-11H-indeno-[1,2-c]isoquinoline]",% PARS inhibition at 300 nM,PARS [1],50%
"CN1CCN(CCCNS(=O)(=O)c2ccc3c(c2)Cc2c-3[nH]c(=O)c3ccccc23)CC1 [Compound 8o, 9-[N-[3-(4-methylpiperazino-1-yl]propyl)-aminosulphonyl]-5,6-dihydro-5-oxo-11H-indeno-[1,2c]isoquinoline]",% PARS inhibition at 100 nM,PARS [1],48%
same,% PARS inhibition at 300 nM,PARS [1],55%
"CN(C)CCN(CCN(C)C)S(=O)(=O)c1ccc2c(c1)Cc1c-2[nH]c(=O)c2ccccc12 [Compound 8q, 9-[N,N di-(2-[N,N dimethylamino]ethyl)aminosulphonyl]-5,6-dihydro-5-oxo-11H-indeno-[1,2-c]isoquinoline]",% PARS inhibition at 100 nM,PARS [1],20%
same,% PARS inhibition at 300 nM,PARS [1],28%
"O=c1[nH]c2c(c3ccccc13)Cc1cc(S(=O)(=O)N(CCN(CCO)CCO)CCN(CCO)CCO)ccc1-2 [Compound 8r, 9-[N,N-di(2[N,N-dihydroxyethylamino]ethyl)-aminosulphonyl]-5,6-dihydro-5-oxo-11H-indeno-[1,2c]isoquinoline]",% PARS inhibition at 100 nM,PARS [1],20%
same,% PARS inhibition at 300 nM,PARS [1],28%
COc1ccc2oc3c4ccccc4c(=O)[nH]c3c2c1 [Compound 22a],% PARS inhibition at 100 nM,PARS [1],51%
same,% PARS inhibition at 1 μM,PARS [1],81%
"O=c1[nH]c2c3cc(O)ccc3oc2c2ccccc12 [Compound 23a, 8-Hydroxy-6H-11-oxa-6-aza-benzo[a]fluoren-5-one]",inhibition at 0.1 µM,PARS [1],34%
same,inhibition at 0.3 µM,PARS [1],79%
same,inhibition at 1 µM,PARS [1],84%
O=c1[nH]c2c3ccc(O)cc3oc2c2ccccc12 [Compound 23b],inhibition at 0.1 µM,PARS [1],53%
same,inhibition at 0.3 µM,PARS [1],57%
same,inhibition at 1 µM,PARS [1],58%
"O=c1[nH]c2c3ccccc3[nH]c2c2ccccc12 [Compound 31, 6H,11H-Indolo[3,2-c]Isoquinoline-5-one]",inhibition at 0.1 µM,PARS [1],18%
"NS(=O)(=O)c1ccc2c3[nH]c(=O)c4ccccc4c3n(S(N)(=O)=O)c2c1 [Compound 35a, 6H,11H-Indolo[3,2-c]Isoquinoline-5-one-9,11-disulfonamide]",inhibition at 0.1 µM,PARS [1],14%
same,inhibition at 1 µM,PARS [1],75%
Oc1nc2c(c3ccccc13)Cc1ccc(F)cc1-2 [Compound 99],EC50,PARS [2],225 nM
O=c1[nH]c2c(c3ccccc13)Cc1cc(F)ccc1-2 [Compound 100],EC50,PARS [2],180 nM
"Nc1ccc2c(c1)Cc1c-2[nH]c(=O)c2ccccc12 [Compound 102, 5,6-Dihydro-5-oxo-9-amino-indeno[1,2-c]isoquinoline]",EC50,PARS [2],95 nM
O=C(CO)Nc1ccc2c(c1)Cc1c-2[nH]c(=O)c2ccccc12 [Compound 104],EC50,PARS [2],65 nM
CCCNC(=O)Nc1ccc2c(c1)Cc1c-2[nH]c(=O)c2ccccc12 [Compound 105],EC50,PARS [2],80 nM
O=S(=O)(NCCCN1CCOCC1)c1cc2c(cc1F)-c1nc(O)c3ccccc3c1C2 [Compound 107],EC50,PARS [2],10 nM
O=S(=O)(O)c1ccc2c(c1)Cc1c-2nc(O)c2ccccc12 [Compound 110],EC50,PARS [2],625 nM
